Assay results as given in publication PMC4724290 (Synapse (New York, N.Y.), 2015).
Entries after “also recorded” stand apart in the source; their conditions may differ. Where a name gives a salt, the structure may show the parent alone. Read-outs that look alike come from different tables or passages of the source.

Assays:
σ1 receptors [1] = target: T1, σ1 receptors (Mus musculus, UniProt O55242); test: In vitro σ1 receptor binding, [^3H]; parameters: species or system CD-1 mouse; conditions: for Selectivity Ki Ratio σ2/σ1: CD-1 mouse whole brain membranes
σ2 receptors [2] = target: T2, σ2 receptors (Mus musculus, UniProt Q8VD00); test: In vitro σ2 receptor binding, [^3H]DTG/; parameters: species or system CD-1 mouse
T2 sequence (Q8VD00 1-176): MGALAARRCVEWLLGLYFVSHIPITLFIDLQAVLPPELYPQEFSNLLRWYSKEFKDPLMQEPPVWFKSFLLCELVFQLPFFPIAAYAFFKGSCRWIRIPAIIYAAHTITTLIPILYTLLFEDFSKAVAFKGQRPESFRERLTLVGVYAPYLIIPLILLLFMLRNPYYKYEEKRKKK

DAT = conditions: cited from earlier work
[3] = target: striatal dopamine transporters (DAT) (Mus musculus, UniProt Q61327); test: In vivo DAT occupancy: inhibition of [^125I]RTI-121 specific binding in striatum; parameters: species or system CD-1 mice; conditions: 10.0 μmol/kg i.p.
CD-1 mice = test: Locomotor activity: basal and; format: in vivo; conditions: for Effect on basal locomotor activity: i.p., E-IA-DM-PE-PIPZE up to 3.16 μmol/kg, BD1063 3.16 and 31.6 μmol/kg, 60 min
Swiss Webster mice = conditions: doses as low as 0.1 mg/kg (0.29 μmol/kg); ref Matsumoto et al., 2001a; cited from earlier work
σ1 receptors [4] = target: T1, σ1 receptors; conditions: ref Lever et al., 2014b, cited from earlier work
σ1 receptors [5] = conditions: read-out: σ1 Ki; ref Lever et al., 2015; cited from earlier work
σ2 receptors [6] = conditions: read-out: Ki for σ2 receptors; ref Kovács and Larson (1995); cited from earlier work
σ1 receptors [7] = target: T1, σ1 receptors; format: in vivo, CD-1 mice; conditions: for Occupancy of cerebral σ1 receptors: in the absence of (−)-cocaine
[8] = 3.0 nM [^3H](+)pentazocine, 37 °C, 180 min
[9] = read-out: Sigma1 IC50, 3.0 nM [^3H](+)pentazocine, 37 °C, 180 min
[10] = 3.0 nM [^3H]DTG/500 nM (+)pentazocine, 25 °C, 60 min
[11] = read-out: Sigma2 IC50, 3.0 nM [^3H]DTG/500 nM (+)pentazocine, 25 °C, 60 min
[12] = ligand i.p. 1 min prior to radioligand, 30 min, unconstrained fit

striatal dopamine transporters (DAT), sequence (Q61327 whole entry): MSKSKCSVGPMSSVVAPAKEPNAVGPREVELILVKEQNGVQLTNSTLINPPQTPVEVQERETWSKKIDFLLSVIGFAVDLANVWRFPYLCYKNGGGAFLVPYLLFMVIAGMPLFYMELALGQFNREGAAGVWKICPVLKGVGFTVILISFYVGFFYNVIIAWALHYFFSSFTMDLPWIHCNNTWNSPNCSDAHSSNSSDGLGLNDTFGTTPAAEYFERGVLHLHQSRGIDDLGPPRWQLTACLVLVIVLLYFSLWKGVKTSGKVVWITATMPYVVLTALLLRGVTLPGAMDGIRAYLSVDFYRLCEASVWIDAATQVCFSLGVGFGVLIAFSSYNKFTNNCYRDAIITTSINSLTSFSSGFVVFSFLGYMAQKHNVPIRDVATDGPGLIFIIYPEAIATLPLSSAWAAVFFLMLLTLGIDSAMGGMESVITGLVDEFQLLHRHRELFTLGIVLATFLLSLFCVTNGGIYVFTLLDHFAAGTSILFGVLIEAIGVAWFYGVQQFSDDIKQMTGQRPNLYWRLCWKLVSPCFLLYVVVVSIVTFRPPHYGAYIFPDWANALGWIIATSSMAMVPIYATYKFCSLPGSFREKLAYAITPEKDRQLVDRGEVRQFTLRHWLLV
T1 sequence (O55242 whole entry): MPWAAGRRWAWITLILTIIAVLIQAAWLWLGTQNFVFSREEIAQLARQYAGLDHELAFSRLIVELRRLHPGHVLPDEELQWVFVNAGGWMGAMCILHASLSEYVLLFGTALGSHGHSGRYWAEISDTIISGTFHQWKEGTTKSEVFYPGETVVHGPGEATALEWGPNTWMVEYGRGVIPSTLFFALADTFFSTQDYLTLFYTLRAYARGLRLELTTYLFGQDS

## C=CCN1CCC2(C)c3cc(O)ccc3CC1C2C (single isomer, unassigned; (+)) [(+)-NANM, (+)-N-allylnormetazocine]
σ1 receptors [1]; [8]
  Sigma1 nH: 1.06 ± 0.11
σ1 receptors [1]
  Selectivity Ki Ratio σ2/σ1: 608
σ1 receptors [1]; [9]
  IC50: 20.6 ± 1.14 nM
σ1 receptors [1]; read-out: Sigma1 Ki
  Ki: 13.3 ± 0.74 nM
σ2 receptors [2]; [10]
  Sigma2 nH: 0.98 ± 0.12
σ2 receptors [2]; [11]
  IC50: 8990 ± 850 nM

## C=CCN1CCC2(C)c3cc(O)ccc3CC1C2C (single isomer, unassigned; (-)) [(−)-NANM, (−)-N-allylnormetazocine]
σ1 receptors [1]; [8]
  Sigma1 nH: 1.09 ± 0.08
σ1 receptors [1]
  Selectivity Ki Ratio σ2/σ1: 2.6
σ1 receptors [1]; [9]
  IC50: 3980 ± 600 nM
σ1 receptors [1]; read-out: Sigma1 Ki
  Ki: 2550 ± 383 nM
σ2 receptors [2]; [10]
  Sigma2 nH: 0.93 ± 0.08
σ2 receptors [2]; [11]
  IC50: 7460 ± 469 nM

## CC(C)=CCN1CC[C@]2(C)c3cc(O)ccc3C[C@H]1[C@H]2C [(+)-Pentazocine, (+)-pentazocine]
σ1 receptors [1]; [8]
  Sigma1 nH: 1.09 ± 0.03

## CN1CCN(CCc2ccc(Cl)c(Cl)c2)CC1 [BD1063, 1-[2-(3,4-dichlorophenyl)ethyl]-4-methylpiperazine]
DAT; read-out: Ki for the DAT (apparent affinity), ref Garcés-Ramírez et al., 2011
  Ki: 8000 nM
[3]
  Inhibition of striatal [^125I]RTI-121 specific binding: did not inhibit
CD-1 mice; 3.16 μmol/kg i.p., not statistically significant
  Increase of (−)-cocaine-induced hyperactivity: 17%
CD-1 mice; 31.6 μmol/kg i.p., not statistically significant
  Decrease of (−)-cocaine-induced hyperactivity: 19%
CD-1 mice
  Effect on basal locomotor activity: did not significantly affect basal activity
σ1 receptors [1]
  Affinity for σ1 receptors relative to (−)-cocaine (higher): ~200 fold
  Affinity for σ1 receptors relative to PD144418 (lower): 30 fold
  IC50: 9.68 ± 1 nM
  Ki: 5.98 ± 0.62 nM
  Selectivity Ki Ratio σ2/σ1: 127
σ1 receptors [1]; [8]
  Sigma1 nH: 1.17 ± 0.08
σ2 receptors [2]
  IC50: 843 ± 104 nM
  Ki: 762 ± 94 nM
σ2 receptors [2]; [10]
  Sigma2 nH: 0.96 ± 0.13
Swiss Webster mice
  Protection from (−)-cocaine-induced convulsions: protect
σ1 receptors [4]; doses ≥ 3.16 μmol/kg, in the absence of (−)-cocaine
  Occupancy of cerebral σ1 receptors: ≥ 89%
σ1 receptors [4]; same protocol
  ED50 for σ1 occupancy, brain: 0.62 µmol/kg
  ED50 for σ1 occupancy, heart: 0.14 µmol/kg
  ED50 for σ1 occupancy, lung: 0.20 µmol/kg
  ED50 for σ1 occupancy, spleen: 1.47 µmol/kg

## Cc1ccccc1NC(=N)Nc1ccccc1C [DTG, 1,3-di(2-tolyl)guanidine]
σ1 receptors [1]
  IC50: 173 ± 19.9 nM
  Ki: 112 ± 12.9 nM
σ1 receptors [1]; [8]
  Sigma1 nH: 0.91 ± 0.14
σ2 receptors [2]; [10]
  Sigma2 nH: 0.88 ± 0.05

## COc1ccc2c(c1)[C@]13CCCC[C@@H]1[C@H](C2)N(C)CC3 [Dextromethorphan, dextromethorphan hydrobromide]
σ1 receptors [5]
  Ki: 63 nM
σ1 receptors [1]
  IC50: 97.5 ± 6.9 nM
  Ki: 63.1 ± 4.5 nM
σ1 receptors [1]; [8]
  Sigma1 nH: 0.88 ± 0.07
σ2 receptors [2]
  IC50: 30000 ± 2820 nM
  Ki: 26800 ± 2530 nM
σ2 receptors [6]
  Ki: 1740 nM

## COc1ccc(CCN2CCN(C/C=C/I)CC2)cc1OC [E-IA-DM-PE-PIPZE, E-N-1-(3′-iodoallyl)-N′-4-(3″,4″-dimethoxyphenethyl)-piperazine]
DAT; read-out: Ki for the DAT in vitro, ref Lever et al., 2012
  Ki: > 10000 nM
[3]
  Inhibition of striatal [^125I]RTI-121 specific binding: did not affect radioligand binding; also recorded: No inhibition
CD-1 mice
  Effect on basal locomotor activity: do not significantly; also recorded: not affected
σ1 receptors [1]; [8]
  Sigma1 nH: 0.98 ± 0.07
σ1 receptors [1]
  Selectivity Ki Ratio σ2/σ1: 215
σ1 receptors [1]; [9]
  IC50: 10.4 ± 1.39 nM
σ1 receptors [1]; read-out: Sigma1 Ki
  Ki: 6.73 ± 0.9 nM
σ2 receptors [2]; [10]
  Sigma2 nH: 0.98 ± 0.08
σ2 receptors [2]; [11]
  IC50: 1600 ± 243 nM
σ1 receptors [7]; 0.316 μmol/kg i.p.
  Occupancy of cerebral σ1 receptors: 58%
σ1 receptors [7]; 3.16 μmol/kg i.p.
  Occupancy of cerebral σ1 receptors: 86%
σ1 receptors [7]; [12]
  ED50 for σ1 occupancy, brain: 0.23 µmol/kg
  ED50 for σ1 occupancy, heart: 0.03 µmol/kg
  ED50 for σ1 occupancy, lung: 0.08 µmol/kg
  ED50 for σ1 occupancy, spleen: 0.35 µmol/kg
